# Reference: the supplement of paper PMC10307832
# Columns and labels:
# Assay in all cases: relative viability (nuclei count vs DMSO), 5 days (fraction); higher = more cells survive
# [1] = compound: Cn1cncc1[C@@](N)(c1ccc(Cl)cc1)c1ccc2c(c1)c(-c1cccc(Cl)c1)cc(=O)n2C [Tipifarnib]
# In short: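 MetaXpress counted nuclei in 4× images of lung cancer cell lines that had been fixed, permeabilised and Hoechst-stained in one step. Before that, cells in 1536-well plates were kept overnight at 37 °C, pinned with five √10-spaced library-drug doses on vehicle-anchored plates, and cultured 5 days without medium change. Viability takes treated-well nuclei over vehicle-well nuclei and uses the median across plates. Plates were accepted only at control CV below 25% and at least one doubling.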
# [2] = compound: Cn1cncc1[C@@](N)(c1ccc(Cl)cc1)c1ccc2c(c1)c(-c1cccc(Cl)c1)cc(=O)n2C [Tipifarnib] + CC1(C)CCC(c2ccc(Cl)cc2)=C(CN2CCN(c3ccc(C(=O)NS(=O)(=O)c4ccc(N[C@H](CCN5CCOCC5)CSc5ccccc5)c(S(=O)(=O)C(F)(F)F)c4)cc3)CC2)C1 [Navitoclax] (partner 0.5 µM)
# In short: (§1)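 Dosing by pin tool came one day after lung cancer cell lines were seeded in 1536-well plates, using either one drug or a fixed anchor-drug dose plus five library-drug doses (not always all listed) in √10 steps. After 5 days, nuclei were counted on 4× images. Relative viability is treated-well nuclei count divided by vehicle-well nuclei count, and values are medians of duplicate plates.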
# [3] = compound: Cn1cncc1[C@@](N)(c1ccc(Cl)cc1)c1ccc2c(c1)c(-c1cccc(Cl)c1)cc(=O)n2C [Tipifarnib] + COc1cc2c(Oc3ccc(NC(=O)C4(C(=O)Nc5ccc(F)cc5)CC4)cc3F)ccnc2cc1OCCCN1CCOCC1 [Foretinib] (partner 0.25 µM)
# In short: as §1
# [4] = compound: Cn1cncc1[C@@](N)(c1ccc(Cl)cc1)c1ccc2c(c1)c(-c1cccc(Cl)c1)cc(=O)n2C [Tipifarnib] + CS(=O)(=O)CCNCc1ccc(-c2ccc3ncnc(Nc4ccc(OCc5cccc(F)c5)c(Cl)c4)c3c2)o1 [Lapatinib] (partner 2 µM)
# In short: as §1
# [5] = compound: Cn1cncc1[C@@](N)(c1ccc(Cl)cc1)c1ccc2c(c1)c(-c1cccc(Cl)c1)cc(=O)n2C [Tipifarnib] + CS(=O)(=O)N1CCN(Cc2cc3nc(-c4cccc5[nH]ncc45)nc(N4CCOCC4)c3s2)CC1 [Pictilisib] (partner 1 µM)
# In short: as §1
# [6] = compound: Cn1cncc1[C@@](N)(c1ccc(Cl)cc1)c1ccc2c(c1)c(-c1cccc(Cl)c1)cc(=O)n2C [Tipifarnib] + C[C@@H](Oc1cc(-c2cnn(C3CCNCC3)c2)cnc1N)c1c(Cl)ccc(F)c1Cl [Crizotinib] (partner 1 µM)
# In short: as §1
# [7] = compound: Cn1cncc1[C@@](N)(c1ccc(Cl)cc1)c1ccc2c(c1)c(-c1cccc(Cl)c1)cc(=O)n2C [Tipifarnib] + C[C@]1(O)C[C@@H](c2nc(-c3ccc4ccc(-c5ccccc5)nc4c3)c3c(N)nccn32)C1 [Linsitinib] (partner 1 µM)
# In short: as §1
# [8] = compound: Cn1cncc1[C@@](N)(c1ccc(Cl)cc1)c1ccc2c(c1)c(-c1cccc(Cl)c1)cc(=O)n2C [Tipifarnib] + Cc1nc(NC(=O)N2CCC[C@H]2C(N)=O)sc1-c1ccnc(C(C)(C)C(F)(F)F)c1 [Alpelisib] (partner 2 µM)
# In short: as §1
# [9] = compound: Cn1cncc1[C@@](N)(c1ccc(Cl)cc1)c1ccc2c(c1)c(-c1cccc(Cl)c1)cc(=O)n2C [Tipifarnib] + N=C(N)NC(=N)NCCc1ccccc1 [Phenformin] (partner 250 µM)
# In short: as §1
# [10] = compound: Cn1cncc1[C@@](N)(c1ccc(Cl)cc1)c1ccc2c(c1)c(-c1cccc(Cl)c1)cc(=O)n2C [Tipifarnib] + Nc1ncn([C@H]2C[C@H](O)[C@@H](CO)O2)c(=O)n1 [Decitabine] (partner 2 µM)
# In short: as §1
# [11] = compound: Cn1cncc1[C@@](N)(c1ccc(Cl)cc1)c1ccc2c(c1)c(-c1cccc(Cl)c1)cc(=O)n2C [Tipifarnib] + O=C(c1cc(Cc2n[nH]c(=O)c3ccccc23)ccc1F)N1CCN(C(=O)C2CC2)CC1 [Olaparib] (partner 8 µM)
# In short: as §1
cell line,measurement,setting,value
A549,relative viability,[1]; 0.01 µM,1.01
same,relative viability,[1]; 0.03162 µM,0.853
same,relative viability,[1]; 0.1 µM,0.563
same,relative viability,[1]; 0.3162 µM,0.417
same,relative viability,[1]; 1 µM,0.251
same,relative viability,[2]; first compound 0.01 µM,1.18
same,relative viability,[2]; first compound 0.03162 µM,0.981
same,relative viability,[2]; first compound 0.1 µM,0.678
same,relative viability,[2]; first compound 0.3162 µM,0.531
same,relative viability,[2]; first compound 1 µM,0.341
same,relative viability,[3]; first compound 0.01 µM,1.03
same,relative viability,[3]; first compound 0.03162 µM,0.843
same,relative viability,[3]; first compound 0.1 µM,0.386
same,relative viability,[3]; first compound 0.3162 µM,0.296
same,relative viability,[3]; first compound 1 µM,0.366
same,relative viability,[4]; first compound 0.01 µM,1.09
same,relative viability,[4]; first compound 0.03162 µM,0.793
same,relative viability,[4]; first compound 0.1 µM,0.643
same,relative viability,[4]; first compound 0.3162 µM,0.439
same,relative viability,[4]; first compound 1 µM,0.302
same,relative viability,[5]; first compound 0.01 µM,0.53
same,relative viability,[5]; first compound 0.03162 µM,0.44
same,relative viability,[5]; first compound 0.1 µM,0.387
same,relative viability,[5]; first compound 0.3162 µM,0.256
same,relative viability,[5]; first compound 1 µM,0.22
same,relative viability,[6]; first compound 0.01 µM,0.499
same,relative viability,[6]; first compound 0.03162 µM,0.313
same,relative viability,[6]; first compound 0.1 µM,0.238
same,relative viability,[6]; first compound 0.3162 µM,0.155
same,relative viability,[6]; first compound 1 µM,0.121
same,relative viability,[7]; first compound 0.01 µM,0.707
same,relative viability,[7]; first compound 0.03162 µM,0.596
same,relative viability,[7]; first compound 0.1 µM,0.49
same,relative viability,[7]; first compound 0.3162 µM,0.325
same,relative viability,[7]; first compound 1 µM,0.233
same,relative viability,[8]; first compound 0.01 µM,0.759
same,relative viability,[8]; first compound 0.03162 µM,0.649
same,relative viability,[8]; first compound 0.1 µM,0.398
same,relative viability,[8]; first compound 0.3162 µM,0.346
same,relative viability,[8]; first compound 1 µM,0.283
same,relative viability,[9]; first compound 0.01 µM,0.181
same,relative viability,[9]; first compound 0.03162 µM,0.116
same,relative viability,[9]; first compound 0.1 µM,0.108
same,relative viability,[9]; first compound 0.3162 µM,0.0861
same,relative viability,[9]; first compound 1 µM,0.0622
same,relative viability,[10]; first compound 0.01 µM,0.243
same,relative viability,[10]; first compound 0.03162 µM,0.32
same,relative viability,[10]; first compound 0.1 µM,0.143
same,relative viability,[10]; first compound 0.3162 µM,0.124
same,relative viability,[10]; first compound 1 µM,0.0674
same,relative viability,[11]; first compound 0.01 µM,0.265
same,relative viability,[11]; first compound 0.03162 µM,0.276
same,relative viability,[11]; first compound 0.1 µM,0.245
same,relative viability,[11]; first compound 0.3162 µM,0.219
same,relative viability,[11]; first compound 1 µM,0.109
